For 19 compounds, IC50 results are on record in US11345681B1, “Inhibitors of fibroblast growth factor receptor kinases” (Kinnate Biopharma Inc., priority 2020, dated 2022).

For the experiment, the target named is Wild type FGFR2 (Homo sapiens (Human), UniProt P21802). The experiment is described as follows: FGFR2 kinase assay (fluorescence-based microfluidic mobility shift assay). Type of experiment: biochemical. As to conditions: wild type FGFR2 0.06 nM, 100 μM ATP, 80 minutes at room temperature; class symbols.
Wild type FGFR2, sequence (P21802 22-821): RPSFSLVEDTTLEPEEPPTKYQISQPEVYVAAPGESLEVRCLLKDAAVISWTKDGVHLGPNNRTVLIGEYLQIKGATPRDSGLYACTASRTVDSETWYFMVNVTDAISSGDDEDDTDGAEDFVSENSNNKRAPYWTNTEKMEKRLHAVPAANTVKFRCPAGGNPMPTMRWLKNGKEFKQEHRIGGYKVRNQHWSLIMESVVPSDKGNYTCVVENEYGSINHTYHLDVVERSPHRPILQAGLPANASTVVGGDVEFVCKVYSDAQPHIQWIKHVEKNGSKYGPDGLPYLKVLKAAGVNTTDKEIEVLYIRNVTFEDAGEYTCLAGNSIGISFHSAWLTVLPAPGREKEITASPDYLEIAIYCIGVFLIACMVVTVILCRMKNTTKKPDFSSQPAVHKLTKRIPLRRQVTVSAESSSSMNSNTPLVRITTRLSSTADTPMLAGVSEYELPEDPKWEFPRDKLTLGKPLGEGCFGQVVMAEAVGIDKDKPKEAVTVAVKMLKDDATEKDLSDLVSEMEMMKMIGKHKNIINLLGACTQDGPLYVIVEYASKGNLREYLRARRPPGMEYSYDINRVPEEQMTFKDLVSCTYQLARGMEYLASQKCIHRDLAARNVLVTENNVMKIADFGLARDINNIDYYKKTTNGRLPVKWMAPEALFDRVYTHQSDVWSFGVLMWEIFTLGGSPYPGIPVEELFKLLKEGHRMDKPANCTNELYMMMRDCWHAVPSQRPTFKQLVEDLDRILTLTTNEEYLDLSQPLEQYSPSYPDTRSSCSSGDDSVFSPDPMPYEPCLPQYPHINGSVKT

For `C=C(F)C(=O)N1C[C@@H](n2nc(C#Cc3cc4ncn(CC)c4cc3Cl)c(C(N)=O)c2NC)C[C@@H]1COC` [Example 129, 3-[2-(6-Chloro-1-ethyl-1,3-benzodiazol-5-yl)ethynyl]-1-[(3S,5R)-1-(2-fluoroprop-2-enoyl)-5-(methoxymethyl)pyrrolidin-3-yl]-5-(methylamino)pyrazole-4-carboxamide], the IC50 lay within 0.1 to 1 µM.

With `C=CC(=O)N1C[C@@H](n2nc(C#Cc3cc4ncnn4cc3F)c(C(N)=O)c2NC)C[C@@H]1COC` [Example 130, 3-(2-[6-Fluoro-[1,2,4]triazolo[1,5-a]pyridin-7-yl]-ethynyl)-1-[(3S,5R)-5-(methoxymethyl)-1-(prop-2-enoyl)pyrrolidin-3-yl]-5-(methylamino)pyrazole-4-carboxamide], the IC50 is at most 0.1 µM. With `C=CC(=O)N1C[C@@H](n2nc(C#Cc3cc4nccn4cc3F)c(C(N)=O)c2NC)C[C@@H]1COC` [Example 132, 1-((3S,5R)-1-Acryloyl-5-(methoxymethyl)pyrrolidin-3-yl)-3-((6-fluoroimidazo[1,2-a]pyridin-7-yl)ethynyl)-5-(methylamino)-1H-pyrazole-4-carboxamide] the figure was at most 0.1 µM; with `C=CC(=O)N1C[C@@H](n2nc(C#Cc3c(Cl)cc4c(nc(C)n4C)c3F)c(C(N)=O)c2NC)C[C@@H]1COC` [Example 133, 3-[2-(6-Chloro-4-fluoro-1,2-dimethyl-1,3-benzodiazol-5-yl)ethynyl]-1-[(3S,5R)-5-(methoxymethyl)-1-(prop-2-enoyl)pyrrolidin-3-yl]-5-(methylamino)pyrazole-4-carboxamide], at most 0.1 µM. For `C=CC(=O)N1CC[C@H](n2nc(C#Cc3cc4ncn(C5CC5)c4cc3F)c(C(N)=O)c2NC)C1` [Example 136, 3-[2-(1-Cyclopropyl-6-fluoro-1,3-benzodiazol-5-yl)ethynyl]-5-(methylamino)-1-[(3S)-1-(prop-2-enoyl)pyrrolidin-3-yl]pyrazole-4-carboxamide], the IC50 is at most 0.1 µM. With `CC#CC(=O)N1C[C@@H](n2nc(C#Cc3c(F)cc4c(ncn4CC)c3F)c(C(N)=O)c2NC)C[C@@H]1COC` [Example 137, 1-[(3S,5R)-1-(but-2-ynoyl)-5-(methoxymethyl)pyrrolidin-3-yl]-3-[2-(1-ethyl-4,6-difluoro-1,3-benzodiazol-5-yl)ethynyl]-5-(methylamino)pyrazole-4-carboxamide] the figure was at most 0.1 µM. `[2H]C([2H])([2H])OC[C@H]1C[C@H](n2nc(C#Cc3cc4ncn(CC)c4cc3Cl)c(C(N)=O)c2NC)CN1C(=O)C=C` [Example 138, 1-((3S,5R)-1-acryloyl-5-((methoxy-d3)methyl)pyrrolidin-3-yl)-3-((6-chloro-1-ethyl-1H-benzo[d]imidazol-5-yl)ethynyl)-5-(methylamino)-1H-pyrazole-4-carboxamide]: the IC50 is at most 0.1 µM.

For `C=CC(=O)N1CC[C@H](n2nc(C#Cc3cc4ncn(C)c4cc3F)c(C(N)=O)c2NC)C1` [Example 139, 3-[2-(6-Fluoro-1-methyl-1,3-benzodiazol-5-yl)ethynyl]-5-(methylamino)-1-[(3S)-1-(prop-2-enoyl)pyrrolidin-3-yl]pyrazole-4-carboxamide], the IC50 is at most 0.1 µM. With `C=CC(=O)N1CC[C@H](n2nc(C#Cc3cc4ncn(CC)c4c(F)c3F)c(C(N)=O)c2NC)C1` [Example 140, 3-[2-(1-Ethyl-6,7-difluoro-1,3-benzodiazol-5-yl)ethynyl]-5-(methylamino)-1-[(3S)-1-(prop-2-enoyl)pyrrolidin-3-yl]pyrazole-4-carboxamide] the figure was at most 0.1 µM; with `C=CC(=O)N1CC[C@H](n2nc(C#Cc3cc4ncn(CC)c4c(F)c3Cl)c(C(N)=O)c2NC)C1` [Example 141, 3-[2-(6-Chloro-1-ethyl-7-fluoro-1,3-benzodiazol-5-yl)ethynyl]-5-(methylamino)-1-[(3S)-1-(prop-2-enoyl)pyrrolidin-3-yl]pyrazole-4-carboxamide], at most 0.1 µM; with `C=CC(=O)N1CC[C@H](n2nc(C#Cc3cc4ncn(C)c4c(F)c3Cl)c(C(N)=O)c2NC)C1` [Example 142, 3-[2-(6-Chloro-7-fluoro-1-methyl-1,3-benzodiazol-5-yl)ethynyl]-5-(methylamino)-1-[(3S)-1-(prop-2-enoyl)pyrrolidin-3-yl]pyrazole-4-carboxamide], at most 0.1 µM.

For `C=CC(=O)N1CC[C@H](n2nc(C#Cc3cc4ncn(CC)c4cc3F)c(C(N)=O)c2NC)C1` [Example 143, 3-[2-(1-Ethyl-6-fluoro-1,3-benzodiazol-5-yl)ethynyl]-5-(methylamino)-1-[(3S)-1-(prop-2-enoyl)pyrrolidin-3-yl]pyrazole-4-carboxamide], the IC50 was at most 0.1 µM. In the case of `C=CC(=O)N1CC[C@H](n2nc(C#Cc3cc4ncn(C)c4cc3Cl)c(C(N)=O)c2NC)C1` [Example 144, 3-[2-(6-Chloro-1-methyl-1,3-benzodiazol-5-yl)ethynyl]-5-(methylamino)-1-[(3S)-1-(prop-2-enoyl)pyrrolidin-3-yl]pyrazole-4-carboxamide], the concentration for half-maximal inhibition (IC50) is at most 0.1 µM. With `C=CC(=O)N1CC[C@H](n2nc(C#Cc3cc4ncn(C)c4c(F)c3F)c(C(N)=O)c2NC)C1` [Example 145, 3-[2-(6,7-Difluoro-1-methyl-1,3-benzodiazol-5-yl)ethynyl]-5-(methylamino)-1-[(3S)-1-(prop-2-enoyl)pyrrolidin-3-yl]pyrazole-4-carboxamide], the IC50 is at most 0.1 µM.

In the case of `C=CC(=O)N1C[C@@H](n2nc(C#Cc3cc4ncn(C5CC5)c4c(F)c3Cl)c(C(N)=O)c2NC)C[C@@H]1COC` [Example 147, 3-[2-(6-Chloro-1-cyclopropyl-7-fluoro-1,3-benzodiazol-5-yl)ethynyl]-1-[(3S,5R)-5-(methoxymethyl)-1-(prop-2-enoyl)pyrrolidin-3-yl]-5-(methylamino)pyrazole-4-carboxamide], the half-inhibitory concentration (IC50) is at most 0.1 µM. Regarding `C=CC(=O)N1C[C@@H](n2nc(C#Cc3cc4ncn(C)c4cc3F)c(C(N)=O)c2NC)C[C@@H]1CF` [Example 148, 3-[2-(6-Fluoro-1-methyl-1,3-benzodiazol-5-yl)ethynyl]-1-[(3S,5R)-5-(fluoromethyl)-1-(prop-2-enoyl)pyrrolidin-3-yl]-5-(methylamino)pyrazole-4-carboxamide], the IC50 was at most 0.1 µM. With `C=CC(=O)N1C[C@@H](n2nc(C#Cc3c(F)c(F)c4c(nc(C)n4C)c3F)c(C(N)=O)c2NC)C[C@@H]1COC` [Example 149, 1-[(3S,5R)-5-(Methoxymethyl)-1-(prop-2-enoyl)pyrrolidin-3-yl]-5-(methylamino)-3-[2-(4,6,7-trifluoro-1,2-dimethyl-1,3-benzodiazol-5-yl)ethynyl]pyrazole-4-carboxamide] the figure was at most 0.1 µM. Regarding `C=CC(=O)N1C[C@@H](n2nc(C#Cc3cc4nc(C)n(C5CC5)c4cc3F)c(C(N)=O)c2NC)C[C@@H]1COC` [Example 150, 3-[2-(1-Cyclopropyl-6-fluoro-2-methyl-1,3-benzodiazol-5-yl)ethynyl]-1-[(3S,5R)-5-(methoxymethyl)-1-(prop-2-enoyl)pyrrolidin-3-yl]-5-(methylamino)pyrazole-4-carboxamide], the IC50 was at most 0.1 µM. Consider `C=CC(=O)N1C[C@@H](n2nc(C#Cc3cc4ncn(C5CC5)c4c(F)c3F)c(C(N)=O)c2NC)C[C@@H]1COC` [Example 151, 3-[2-(1-Cyclopropy-6,7-difluoro-1,3-benzodiazol-5-yl)ethynyl]-1-[(3S,5R)-5-(methoxymethyl)-1-(prop-2-enoyl)pyrrolidin-3-yl]-5-(methylamino)pyrazole-4-carboxamide], for which the IC50 was at most 0.1 µM.
